This is an account of results in ChEMBL document CHEMBL1201862, “PubChem BioAssay data set” (2004).

Assay [1] in a line: Luminescence Cell-Based Dose Response HTS to Identify Inhibitors of 5'UTR Stem-Loop Driven Prion Protein mRNA Translation in H4 Neuroglioblastoma Cells. [Related pubchem assays: 1827 (Project Summary), 1813 (Primary HTS)]. The class given is functional.
Assay [2] concerns the target T1, Protein RecA (Mycobacterium tuberculosis, UniProt P9WHJ3).
T1 sequence (P9WHJ3 whole entry): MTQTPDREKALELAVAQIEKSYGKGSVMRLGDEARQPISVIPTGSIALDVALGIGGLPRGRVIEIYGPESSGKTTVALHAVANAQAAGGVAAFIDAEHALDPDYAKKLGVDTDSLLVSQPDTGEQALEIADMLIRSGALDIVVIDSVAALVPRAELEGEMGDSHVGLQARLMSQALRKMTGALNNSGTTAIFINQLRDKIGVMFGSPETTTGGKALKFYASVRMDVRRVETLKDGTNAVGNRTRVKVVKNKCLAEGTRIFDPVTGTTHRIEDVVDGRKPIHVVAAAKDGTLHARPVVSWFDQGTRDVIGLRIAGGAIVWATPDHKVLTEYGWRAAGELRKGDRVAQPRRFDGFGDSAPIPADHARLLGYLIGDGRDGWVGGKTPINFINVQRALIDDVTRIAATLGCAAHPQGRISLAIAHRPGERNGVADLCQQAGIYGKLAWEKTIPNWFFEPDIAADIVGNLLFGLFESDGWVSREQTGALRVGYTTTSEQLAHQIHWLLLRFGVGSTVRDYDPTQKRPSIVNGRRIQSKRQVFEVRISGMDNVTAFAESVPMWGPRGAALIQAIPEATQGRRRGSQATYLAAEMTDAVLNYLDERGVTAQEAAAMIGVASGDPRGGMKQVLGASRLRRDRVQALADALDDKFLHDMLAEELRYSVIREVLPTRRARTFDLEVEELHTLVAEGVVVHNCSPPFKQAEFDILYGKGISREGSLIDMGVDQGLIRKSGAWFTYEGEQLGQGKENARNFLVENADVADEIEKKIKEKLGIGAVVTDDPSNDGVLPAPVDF
Put plainly: Fluorescence Cell-Free Homogeneous Dose Retest to Identify Inhibitors of RecA-Intein Splicing Activity. [Related pubchem assays (depositor defined):AID2097, AID2223, AID489010, AID492950]. The class given is functional.

In assay [3] the target is ATP-dependent molecular chaperone HSP82 (Candida albicans (strain WO-1) (Yeast), UniProt C4YTQ8). The assay is described as follows: steroid-induced GRE reporter decrease in yeast – S. cerevisiae, luminescence, Hsp90 inhibitor project, dose response (AID 2400).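 Note: beta-galactosidase luminescence from glucocorticoid response element reporter as proxy for Hsp90 function; inhibitor potency where signal loss means Hsp90 inhibition.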 The class given is functional, cell-based.
For assay [4], the target named is Tyrosine-protein kinase receptor TYRO3 (Homo sapiens, UniProt Q06418). The class given is functional.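 Note: TYRO3 value obtained as one member of a kinome-wide profiling panel.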
Assay [5] concerns the target Aurora kinase B (Homo sapiens, UniProt Q96GD4). The assay is classed as functional.
For assay [6], the target named is BDNF/NT-3 growth factors receptor (Homo sapiens, UniProt Q16620). The class given is functional.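 Note: NTRK2 measured as one member of a broad kinome-wide kinase profiling panel.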
For assay [7], the target named is Tyrosine-protein kinase Fyn (Homo sapiens, UniProt P06241). The assay is classed as functional.
Sequence of Tyrosine-protein kinase Fyn (P06241 whole entry): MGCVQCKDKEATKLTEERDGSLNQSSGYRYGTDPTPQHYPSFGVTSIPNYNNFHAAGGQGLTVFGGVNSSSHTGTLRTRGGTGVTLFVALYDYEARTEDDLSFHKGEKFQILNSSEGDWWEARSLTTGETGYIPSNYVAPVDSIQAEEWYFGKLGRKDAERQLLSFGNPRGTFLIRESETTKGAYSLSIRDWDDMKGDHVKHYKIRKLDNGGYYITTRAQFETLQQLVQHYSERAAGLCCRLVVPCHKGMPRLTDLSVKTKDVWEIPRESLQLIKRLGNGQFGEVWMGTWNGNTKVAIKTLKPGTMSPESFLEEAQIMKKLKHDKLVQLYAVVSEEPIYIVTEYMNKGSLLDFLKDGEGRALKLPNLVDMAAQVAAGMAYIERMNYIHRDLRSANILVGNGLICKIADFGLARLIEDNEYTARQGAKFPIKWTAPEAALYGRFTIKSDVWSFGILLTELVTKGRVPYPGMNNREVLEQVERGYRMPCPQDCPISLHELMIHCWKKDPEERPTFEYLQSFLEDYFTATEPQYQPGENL
Assay [8] deals with Serine/threonine-protein kinase D3 (Homo sapiens, UniProt O94806). The assay is classed as functional.
The target of assay [9] is Serine/threonine-protein kinase PAK 4 (Homo sapiens, UniProt O96013). The class given is functional.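 Note: value obtained within a kinome profiling panel in which PAK4 was one of the panel members.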
Sequence of Serine/threonine-protein kinase PAK 4 (O96013 whole entry): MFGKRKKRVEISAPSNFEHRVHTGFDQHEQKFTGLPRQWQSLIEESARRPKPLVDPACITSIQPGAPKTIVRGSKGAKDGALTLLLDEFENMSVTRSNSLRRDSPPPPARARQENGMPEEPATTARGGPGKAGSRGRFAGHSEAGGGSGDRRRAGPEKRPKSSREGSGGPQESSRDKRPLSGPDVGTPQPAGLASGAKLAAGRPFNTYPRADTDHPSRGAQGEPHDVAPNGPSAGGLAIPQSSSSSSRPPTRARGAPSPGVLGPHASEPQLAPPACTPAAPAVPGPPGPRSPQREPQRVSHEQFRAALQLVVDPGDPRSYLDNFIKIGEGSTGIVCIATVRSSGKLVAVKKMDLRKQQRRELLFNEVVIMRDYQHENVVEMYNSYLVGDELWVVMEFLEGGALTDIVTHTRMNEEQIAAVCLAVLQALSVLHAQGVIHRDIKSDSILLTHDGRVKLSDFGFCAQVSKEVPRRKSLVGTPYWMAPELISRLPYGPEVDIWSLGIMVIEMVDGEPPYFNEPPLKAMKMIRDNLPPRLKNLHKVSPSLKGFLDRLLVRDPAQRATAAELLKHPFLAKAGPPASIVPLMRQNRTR
Assay [10] addresses Dual specificity tyrosine-phosphorylation-regulated kinase 1B (Homo sapiens, UniProt Q9Y463). Put plainly: Navigating the Kinome. Panel member name: DYRK1B. The class given is functional.
For assay [11], the target named is Receptor-type tyrosine-protein kinase FLT3 (Homo sapiens, UniProt P36888). The class given is functional.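 Note: FLT3 was tested as one member of a kinome-wide kinase panel.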
Sequence of Receptor-type tyrosine-protein kinase FLT3 (P36888 whole entry): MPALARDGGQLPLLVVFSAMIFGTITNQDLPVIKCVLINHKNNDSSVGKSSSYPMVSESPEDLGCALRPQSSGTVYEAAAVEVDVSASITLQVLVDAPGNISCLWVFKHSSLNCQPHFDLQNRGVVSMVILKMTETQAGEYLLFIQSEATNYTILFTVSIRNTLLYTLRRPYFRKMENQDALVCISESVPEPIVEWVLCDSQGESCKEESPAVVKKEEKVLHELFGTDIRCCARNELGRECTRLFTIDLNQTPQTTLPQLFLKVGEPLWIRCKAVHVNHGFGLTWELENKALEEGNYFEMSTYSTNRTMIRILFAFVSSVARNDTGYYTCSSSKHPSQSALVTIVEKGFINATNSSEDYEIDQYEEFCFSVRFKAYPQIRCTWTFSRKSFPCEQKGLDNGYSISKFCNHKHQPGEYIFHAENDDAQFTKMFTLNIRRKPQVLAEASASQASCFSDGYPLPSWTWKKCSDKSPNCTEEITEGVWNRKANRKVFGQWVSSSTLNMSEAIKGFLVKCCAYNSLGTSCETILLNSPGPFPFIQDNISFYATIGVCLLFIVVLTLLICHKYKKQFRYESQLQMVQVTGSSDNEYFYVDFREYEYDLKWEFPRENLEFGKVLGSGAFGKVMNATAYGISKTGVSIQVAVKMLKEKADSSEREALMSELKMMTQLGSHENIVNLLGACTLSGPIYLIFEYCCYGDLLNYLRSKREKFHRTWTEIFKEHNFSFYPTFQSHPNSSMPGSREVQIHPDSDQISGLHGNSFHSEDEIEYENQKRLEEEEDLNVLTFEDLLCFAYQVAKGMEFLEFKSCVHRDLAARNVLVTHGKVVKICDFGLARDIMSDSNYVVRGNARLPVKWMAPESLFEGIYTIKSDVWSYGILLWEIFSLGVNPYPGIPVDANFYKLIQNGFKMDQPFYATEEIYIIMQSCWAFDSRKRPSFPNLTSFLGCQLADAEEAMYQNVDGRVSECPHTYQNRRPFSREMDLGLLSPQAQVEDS
Assay [12] addresses Macrophage-stimulating protein receptor (Homo sapiens, UniProt Q04912). Put plainly: Navigating the Kinome. Panel member name: MST1R. The assay is classed as functional.
Assay [13] has as its target Mitogen-activated protein kinase 9 (Homo sapiens, UniProt P45984). The assay is classed as functional.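 Note: value from a kinome panel profiling assay, MAPK9 panel entry.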
For assay [14], the target named is Cyclin-dependent kinase 5 (Homo sapiens, UniProt Q00535). The assay is classed as functional.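 Note: CDK5 measured as one member of a kinase profiling panel.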
Sequence of Cyclin-dependent kinase 5 (Q00535 whole entry): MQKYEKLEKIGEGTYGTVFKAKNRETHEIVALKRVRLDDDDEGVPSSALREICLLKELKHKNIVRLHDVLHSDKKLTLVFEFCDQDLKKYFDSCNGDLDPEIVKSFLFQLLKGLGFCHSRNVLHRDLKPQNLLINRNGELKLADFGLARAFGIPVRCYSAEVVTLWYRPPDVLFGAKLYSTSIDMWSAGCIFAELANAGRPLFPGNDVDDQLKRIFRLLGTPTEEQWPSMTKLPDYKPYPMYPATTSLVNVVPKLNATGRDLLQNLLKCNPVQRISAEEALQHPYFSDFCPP
Assay [15] deals with Leukocyte tyrosine kinase receptor (Homo sapiens, UniProt P29376). The assay is described as follows: Navigating the Kinome. Panel member name: LTK. The assay is classed as functional.
Sequence of Leukocyte tyrosine kinase receptor (P29376 whole entry): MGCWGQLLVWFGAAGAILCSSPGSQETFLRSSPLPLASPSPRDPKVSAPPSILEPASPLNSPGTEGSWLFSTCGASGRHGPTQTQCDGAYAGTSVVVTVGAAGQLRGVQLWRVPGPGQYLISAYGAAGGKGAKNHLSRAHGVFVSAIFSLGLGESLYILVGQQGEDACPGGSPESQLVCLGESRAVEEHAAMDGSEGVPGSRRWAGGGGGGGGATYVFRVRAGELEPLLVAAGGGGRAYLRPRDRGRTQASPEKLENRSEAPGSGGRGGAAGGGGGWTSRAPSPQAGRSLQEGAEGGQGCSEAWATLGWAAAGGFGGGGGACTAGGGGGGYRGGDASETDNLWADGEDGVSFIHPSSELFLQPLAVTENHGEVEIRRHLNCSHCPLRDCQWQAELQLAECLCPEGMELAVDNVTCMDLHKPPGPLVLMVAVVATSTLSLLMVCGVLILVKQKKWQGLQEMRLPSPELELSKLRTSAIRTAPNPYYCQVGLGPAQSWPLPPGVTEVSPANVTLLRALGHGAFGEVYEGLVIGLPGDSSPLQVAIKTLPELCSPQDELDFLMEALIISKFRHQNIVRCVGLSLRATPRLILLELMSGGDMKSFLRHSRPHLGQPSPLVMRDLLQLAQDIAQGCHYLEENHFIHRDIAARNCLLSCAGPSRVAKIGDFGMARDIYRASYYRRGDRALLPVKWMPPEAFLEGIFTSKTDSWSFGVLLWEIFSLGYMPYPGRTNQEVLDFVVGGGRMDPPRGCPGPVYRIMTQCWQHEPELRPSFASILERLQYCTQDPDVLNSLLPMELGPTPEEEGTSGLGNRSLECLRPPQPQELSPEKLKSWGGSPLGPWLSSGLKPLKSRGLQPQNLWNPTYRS
The target of assay [16] is Serine/threonine-protein kinase TBK1 (Homo sapiens, UniProt Q9UHD2). Put plainly: Navigating the Kinome. Panel member name: TBK1. The class given is functional.
The target of assay [17] is T2, Sentrin-specific protease 8 (Homo sapiens, UniProt Q96LD8).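 Note: luminescence read-out of SENP8 inhibition, dose-response confirmation following an ultra-high-throughput screen.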
T2 sequence (Q96LD8 whole entry): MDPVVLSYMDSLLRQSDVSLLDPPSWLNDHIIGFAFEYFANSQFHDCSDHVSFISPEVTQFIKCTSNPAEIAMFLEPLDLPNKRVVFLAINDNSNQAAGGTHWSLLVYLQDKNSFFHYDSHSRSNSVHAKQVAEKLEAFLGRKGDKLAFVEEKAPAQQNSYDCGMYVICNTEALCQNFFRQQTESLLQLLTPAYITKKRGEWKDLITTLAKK
The assay is classed as functional.

Assay [18] concerns the target T3, Estrogen receptor (Homo sapiens, UniProt P03372).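 Note: potency for inhibiting coactivator peptide recruitment to the receptor.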
T3 sequence (P03372 whole entry): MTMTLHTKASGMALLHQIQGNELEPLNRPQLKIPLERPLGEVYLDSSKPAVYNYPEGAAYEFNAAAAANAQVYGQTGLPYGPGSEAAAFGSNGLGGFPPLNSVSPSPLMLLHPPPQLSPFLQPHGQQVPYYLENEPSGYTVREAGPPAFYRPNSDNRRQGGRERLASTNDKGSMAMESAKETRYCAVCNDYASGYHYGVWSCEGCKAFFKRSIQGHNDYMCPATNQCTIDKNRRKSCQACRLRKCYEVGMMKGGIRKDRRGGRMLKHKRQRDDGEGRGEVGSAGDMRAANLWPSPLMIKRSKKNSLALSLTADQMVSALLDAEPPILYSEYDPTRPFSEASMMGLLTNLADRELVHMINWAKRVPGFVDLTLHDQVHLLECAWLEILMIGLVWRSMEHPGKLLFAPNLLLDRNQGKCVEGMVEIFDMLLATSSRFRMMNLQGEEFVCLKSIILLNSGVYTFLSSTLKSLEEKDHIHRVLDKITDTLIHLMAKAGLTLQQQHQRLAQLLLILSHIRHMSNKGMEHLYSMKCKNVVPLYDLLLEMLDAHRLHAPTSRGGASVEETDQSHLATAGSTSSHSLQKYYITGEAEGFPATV

Assay [19] has as its target T4, Caspase-3 (Homo sapiens, UniProt P42574).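 Note: Dose-response selectivity test against caspase-3 for candidate inhibitors of sentrin-specific proteases (SENPs).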
T4 sequence (P42574 whole entry): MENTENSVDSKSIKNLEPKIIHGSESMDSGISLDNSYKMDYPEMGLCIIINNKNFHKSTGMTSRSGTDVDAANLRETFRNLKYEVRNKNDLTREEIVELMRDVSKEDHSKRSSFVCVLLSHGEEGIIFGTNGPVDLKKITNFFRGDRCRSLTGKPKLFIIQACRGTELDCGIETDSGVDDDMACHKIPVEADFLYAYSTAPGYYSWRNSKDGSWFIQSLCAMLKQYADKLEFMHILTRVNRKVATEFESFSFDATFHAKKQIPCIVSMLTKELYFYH
The class given is functional.

A word on the EC50: it is the concentration needed to bring the measured effect to its halfway point. In general, Ki refers to the equilibrium dissociation constant of an inhibitor or competing ligand from its target. As a reminder, the IC50 is the concentration at which inhibition is half-maximal.

Calls of active or inactive are those of the source.

Sequence of Mitogen-activated protein kinase 9 (P45984 whole entry): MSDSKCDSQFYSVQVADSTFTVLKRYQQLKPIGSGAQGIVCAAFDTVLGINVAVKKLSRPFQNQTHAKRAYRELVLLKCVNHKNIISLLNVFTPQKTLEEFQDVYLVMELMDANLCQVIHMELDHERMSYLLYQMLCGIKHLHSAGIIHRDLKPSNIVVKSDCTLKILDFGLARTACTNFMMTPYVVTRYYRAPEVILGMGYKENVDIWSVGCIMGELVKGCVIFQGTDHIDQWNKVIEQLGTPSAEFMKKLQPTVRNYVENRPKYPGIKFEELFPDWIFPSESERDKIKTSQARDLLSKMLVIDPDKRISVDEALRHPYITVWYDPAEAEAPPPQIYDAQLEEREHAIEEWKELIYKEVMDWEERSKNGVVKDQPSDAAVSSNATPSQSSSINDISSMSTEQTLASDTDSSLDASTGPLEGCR
Sequence of Dual specificity tyrosine-phosphorylation-regulated kinase 1B (Q9Y463 whole entry): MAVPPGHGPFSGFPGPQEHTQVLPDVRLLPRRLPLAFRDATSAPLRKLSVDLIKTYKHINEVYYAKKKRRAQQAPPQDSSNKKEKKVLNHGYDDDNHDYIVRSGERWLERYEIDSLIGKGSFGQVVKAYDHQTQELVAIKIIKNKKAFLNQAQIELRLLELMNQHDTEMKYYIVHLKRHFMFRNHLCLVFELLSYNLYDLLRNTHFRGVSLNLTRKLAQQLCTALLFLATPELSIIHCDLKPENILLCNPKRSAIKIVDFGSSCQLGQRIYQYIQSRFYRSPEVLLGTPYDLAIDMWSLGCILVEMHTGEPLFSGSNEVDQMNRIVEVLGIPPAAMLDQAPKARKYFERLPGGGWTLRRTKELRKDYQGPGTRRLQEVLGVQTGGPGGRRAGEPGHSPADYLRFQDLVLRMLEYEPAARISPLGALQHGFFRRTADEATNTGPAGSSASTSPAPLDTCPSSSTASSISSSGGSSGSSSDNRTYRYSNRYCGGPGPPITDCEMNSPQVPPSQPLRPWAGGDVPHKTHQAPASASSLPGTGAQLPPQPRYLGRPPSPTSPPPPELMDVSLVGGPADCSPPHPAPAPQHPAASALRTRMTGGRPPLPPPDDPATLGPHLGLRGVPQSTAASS
Sequence of Aurora kinase B (Q96GD4 whole entry): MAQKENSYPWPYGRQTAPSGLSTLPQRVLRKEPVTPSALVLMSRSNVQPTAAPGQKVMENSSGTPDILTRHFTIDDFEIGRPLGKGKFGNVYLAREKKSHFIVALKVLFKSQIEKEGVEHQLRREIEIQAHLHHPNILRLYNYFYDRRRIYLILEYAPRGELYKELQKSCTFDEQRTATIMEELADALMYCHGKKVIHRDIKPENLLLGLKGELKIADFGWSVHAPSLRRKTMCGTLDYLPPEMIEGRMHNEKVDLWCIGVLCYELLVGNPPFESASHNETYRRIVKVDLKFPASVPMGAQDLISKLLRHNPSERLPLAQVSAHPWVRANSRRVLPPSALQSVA

On to `CN1CCN(C(c2ccc(C(F)(F)F)cc2)c2cc(Cl)c3cccnc3c2O)CC1` (centres undefined), for which the EC50 in assay [1] was 9.3 µM (active); in assay [2], 0.932 µM (active); in assay [3] it was 6.72 µM (active).
As to `O=C(NC(CCO)c1ccccc1)c1ccc(-c2ccncc2)cc1` (centres undefined), the Ki is > 3.16 µM (inactive) in [4]; > 3.98 µM (inactive) in assay [5]; > 3.98 µM (inactive) in assay [6]; > 6.31 µM (inactive) in assay [7]; > 3.98 µM (inactive) in assay [8]; > 5.01 µM (inactive) in [9]. Besides, the Ki was > 2.51 µM (inactive) in [10]; > 3.16 µM (inactive) in [11]; > 3.98 µM (inactive) in assay [12]; > 3.98 µM (inactive) in assay [13]; > 3.16 µM (inactive) in assay [14]; > 2.51 µM (inactive) in [15]. Further, the Ki in assay [16] was > 3.16 µM (inactive).
Take `NC(=O)c1c(NC(=O)c2cc3ccccc3o2)sc2c1CCC2`: the results for the IC50 in assay [17], in assay [18] and in assay [19] were 12.4 µM (active), 23.5 µM (active) and 15.1 µM (active), respectively.
